Bridge positions count the residues as written; N and C are the ends. Ends that are not written are not given here.
Experiments:
rScl1.3FL [1] = assay: Surface plasmon resonance binding of C-C′ cyclic peptide to immobilized rScl1.3FL; parameters: species or system Streptococcus pyogenes (M3-type GAS, MGAS315); settings: Biacore 3000, 25°C; rScl1.3FL immobilized on streptavidin chip (~100 RU); peptide 10-500 μM; HBS buffer pH 7.4; 1:1 Langmuir model; duplicates; read-out: dissociation constant KD (SPR)
Protocol: Real time binding assays were performed at 25°C on a Biacore 3000 Surface Plasmon Resonance (SPR) instrument (GE Healthcare). For immobilization, rScl1.3FL protein containing the C-terminal Strep-tag II was injected at a concentration of 40 μM on streptavidin-coated sensor chip, SA Biacore, until the desired level of immobilization was achieved (averaged value of 100 RU). Binding assays were carried out by injecting the C-C′ cyclic peptide at concentrations ranging between 10 and 500 μM. Experiments were carried out in HBS buffer (10 mM HEPES, 150 mM NaCl, 3 mM EDTA, pH 7.4). The association phase (kon) was followed for 270 s, whereas the dissociation phase (koff) was followed for 300 s. The reference chip sensorgrams were subtracted from sample sensorgrams. Experiments were carried out in duplicates. Kinetic parameters were estimated assuming a 1:1 Langmuir binding model and using version 4.1 Evaluation Software (GE Healthcare).

rScl1.3FL [2] = assay: Tryptophan fluorescence quenching binding assay in solution; parameters: species or system Streptococcus pyogenes (M3-type GAS, MGAS315); settings: rScl1.3FL 30 μM, peptide 0-300 μM, 25.0°C, excitation 298 nm, emission 333 nm; 1:1 model; duplicates
Protocol: rScl1.3FL protein, at a concentration of 30 μM, was incubated with increasing concentrations of C-C′ cyclic peptide (0–300 μM) at 25.0°C, using an excitation wavelength of 298.0 nm and a fluorescence emission wavelength ranging from 300 to 400 nm. The acquisition parameters were set as follows: excitation and emission slits at 5 nm; 120 nm/min scan rate; 1.00 nm data interval averaging time at 0.500 s, PMT voltage at “high.” Fluorescence values were recorded at 333 nm, and subtracted from the fluorescence intensity of the ligand-free protein, generating −Δfluorescence. The −Δfluorescence values were plotted against the peptide concentration (Williamson, [2013]). Experiments were carried out in duplicates. A control assay was carried out employing the buffer as titrant to assess that the dilution effect was under 3%, not affecting the results.

[3] = target: recombinant full-length Scl1.3FL protein (streptococcal collagen-like protein 1, M3-type, repaired allele) (Streptococcus pyogenes (group A Streptococcus), M3-type strain MGAS315); assay: SPR; Biacore 3000, 25°C; rScl1.3FL with C-terminal Strep-tag II immobilised on a streptavidin-coated SA chip (about 100 RU); C-C′ cyclic peptide injected at 10-500 μM; HBS buffer (10 mM HEPES, 150 mM NaCl, 3 mM EDTA, pH 7.4); 1:1 Langmuir model
[4] = target: recombinant full-length Scl1.3FL protein (streptococcal collagen-like protein 1, M3-type, repaired allele) (Streptococcus pyogenes (group A Streptococcus), M3-type strain MGAS315); assay: other fluorescence titration; tryptophan fluorescence quenching in solution; rScl1.3FL at 30 μM with 0-300 μM C-C′ cyclic peptide, 25.0°C, excitation 298 nm, read at 333 nm; 1:1 model

“CRVTYSSPEDGIHELFC (disulfide 1-17 (inferred)) [C-C′ cyclic peptide, Disulfide-cyclised, acetylated and amidated peptide mimicking the C-C′ β-hairpin of the EDA domain of cellular fibronectin]” showed a Kd (rScl1.3FL [1]) of 63.3 µM and a Kd (rScl1.3FL [2]) of 44.5 ± 9 µM.

B1: C-C′ cyclic peptide (EDA-derived, mimics the C-C′ β-hairpin of the extra domain A of cellular fibronectin) (peptide)
peptide: Ac-CRVTYSSPEDGIHELFC-NH2
modifications: disulfide 1-17
SMILES: CC[C@H](C)[C@@H]1NC(=O)CNC(=O)[C@H](CC(=O)O)NC(=O)[C@H](CCC(=O)O)NC(=O)[C@@H]2CCCN2C(=O)[C@H](CO)NC(=O)[C@H](CO)NC(=O)[C@H](Cc2ccc(O)cc2)NC(=O)[C@H]([C@@H](C)O)NC(=O)[C@H](C(C)C)NC(=O)[C@H](CCCNC(=N)N)NC(=O)[C@@H](NC(C)=O)CSSC[C@@H](C(N)=O)NC(=O)[C@H](Cc2ccccc2)NC(=O)[C@H](CC(C)C)NC(=O)[C@H](CCC(=O)O)NC(=O)[C@H](Cc2c[nH]cn2)NC1=O
B1 was tested, and the Kd [3] was 63.3 µM and the Kd [4] was 44.5 µM.

Reference: paper PMC5005324, “Unique Footprint in the scl1.3 Locus Affects Adhesion and Biofilm Formation of the Invasive M3-Type Group A Streptococcus” (Frontiers in Cellular and Infection Microbiology, 2016)
